Reference: patent publication US20240277698A1, “METHODS OF USING ALDOSTERONE SYNTHASE INHIBITORS” (CINCOR PHARMA, INC., priority 2021, published 2024)

Molecular target: T1, aldosterone synthase (Homo sapiens, UniProt P19099)
T1 construct: synthesized in the adrenal cortex by aldosterone synthase; endogenous in cells; host or cells: adrenal cortex of healthy human subjects (in vivo, oral dosing)
T1 sequence (P19099 25-503): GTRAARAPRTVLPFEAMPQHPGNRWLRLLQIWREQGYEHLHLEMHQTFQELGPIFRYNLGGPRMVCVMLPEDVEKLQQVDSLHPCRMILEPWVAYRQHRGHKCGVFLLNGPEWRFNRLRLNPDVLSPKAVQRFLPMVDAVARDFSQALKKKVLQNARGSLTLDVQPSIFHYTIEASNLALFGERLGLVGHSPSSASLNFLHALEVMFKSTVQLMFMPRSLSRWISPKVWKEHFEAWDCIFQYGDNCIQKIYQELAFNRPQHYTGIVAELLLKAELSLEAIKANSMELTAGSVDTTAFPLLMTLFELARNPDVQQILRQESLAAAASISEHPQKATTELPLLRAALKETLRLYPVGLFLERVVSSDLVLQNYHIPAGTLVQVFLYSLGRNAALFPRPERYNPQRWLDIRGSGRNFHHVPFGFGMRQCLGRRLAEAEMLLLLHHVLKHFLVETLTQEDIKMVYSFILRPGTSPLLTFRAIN
Experiment: MAD study: plasma aldosterone and precursors (18-hydroxycorticosterone, corticosterone, 11-deoxycorticosterone)
Type: in vivo
Settings: for Plasma 11-deoxycorticosterone, Day −1 predose / Plasma 18-hydroxycorticosterone, Day −1 predose / Plasma aldosterone, Day −1 predose / Plasma corticosterone, Day −1 predose: baseline; for inhibition of aldosterone synthesis: normal salt diet and low salt diet, 10-day dosing
Excerpt: For each subject, the study consisted of: • A screening period of up to 28 days; • A 5-day inpatient run-in period during which subjects adhered to a controlled, standardized diet and underwent baseline PD assessments; • A 15-day inpatient treatment period, during which subjects received (R)-compound 1 or placebo once daily for 10 days while adhering to a controlled, standardized diet, followed by PK and PD sampling over an additional 5 days; and • A follow-up visit 3 days (1 day) after discharge from the clinical unit. • A cortisol stimulation test (Cohorts 1 and 2 only) and standing aldosterone assessment (all cohorts) were performed on Days 1 and 10. Serial blood samples for PK and PD were obtained prior to and at specified time points over 24 hours after dosing on Day 1 as well as prior to and at specified time points over 120 hours after dosing on Day 10. In addition, blood samples for PK were collected prior to dosing on Days 8 and 9. Urine for PK and PD measurements was collected over 24 hours starting just prior to dosing on Day 1 as well as over 120 hours starting just prior to dosing on Day 10. […]

[1] = 2.5 mg QD, normal salt diet, mean

CCC(=O)N[C@@H]1CCCc2c(-c3ccc4c(c3)CCC(=O)N4C)cncc21 [(R)-Compound 1, (R)—N-(4-(1-methyl-2-oxo-1,2,3,4-tetrahydroquinolin-6-yl)-5,6,7,8-tetrahydroisoquinolin-8-yl)propionamide]
Plasma 18-hydroxycorticosterone, Day 10, 24 hours postdose (2.5 mg QD, low salt diet, mean): 961.8 pg/mL | Plasma 18-hydroxycorticosterone, Day 10, predose (2.5 mg QD, low salt diet, mean): 895.4 pg/mL | Plasma 18-hydroxycorticosterone, Percent change from Day −1 to Day 10 (2.5 mg QD, low salt diet, mean): −22.0% | Plasma aldosterone, Day 1, 12 hours postdose (2.5 mg QD, low salt diet, mean): 48.013 pg/mL | Plasma aldosterone, Day 1, predose (2.5 mg QD, low salt diet, mean): 151.988 pg/mL | Plasma aldosterone, Day 10, 12 hours postdose (2.5 mg QD, low salt diet, mean): 69.100 pg/mL | Plasma aldosterone, Day 10, 24 hours postdose (2.5 mg QD, low salt diet, mean): 112.213 pg/mL | Plasma aldosterone, Day 10, predose (2.5 mg QD, low salt diet, mean): 97.538 pg/mL | Plasma aldosterone, Percent change from Day −1 to Day 10, predose (2.5 mg QD, low salt diet, mean): −56.540% | Plasma corticosterone, Day 1, 12 hours postdose (2.5 mg QD, low salt diet, mean): 1653.4 pg/mL | Plasma corticosterone, Day 1, predose (2.5 mg QD, low salt diet, mean): 3711.5 pg/mL | Plasma corticosterone, Day 10, 12 hours postdose (2.5 mg QD, low salt diet, mean): 3412.5 pg/mL | Plasma corticosterone, Day 10, 24 hours postdose (2.5 mg QD, low salt diet, mean): 10012.5 pg/mL | Plasma corticosterone, Day 10, predose (2.5 mg QD, low salt diet, mean): 7190.0 pg/mL | Plasma corticosterone, Percent change from Day −1 to Day 10, predose (2.5 mg QD, low salt diet, mean): 132.0% | Plasma 11-deoxycorticosterone, Day −1 predose [1]: 50.017 pg/mL | Plasma 18-hydroxycorticosterone, Day −1 predose [1]: 1185.8 pg/mL | Plasma aldosterone, Day −1 predose [1]: 153.667 pg/mL | Plasma corticosterone, Day −1 predose [1]: 6395.0 pg/mL | Plasma 11-deoxycorticosterone, Day 1, 12 hours postdose [1]: 23.667 pg/mL | Plasma 11-deoxycorticosterone, Day 1, predose [1]: 53.200 pg/mL | Plasma 11-deoxycorticosterone, Day 2, predose [1]: 69.617 pg/mL | Plasma 11-deoxycorticosterone, Day 10, 12 hours postdose [1]: 93.780 pg/mL | Plasma 11-deoxycorticosterone, Day 10, 24 hours postdose [1]: 177.400 pg/mL | Plasma 11-deoxycorticosterone, Day 10, predose [1]: 130.680 pg/mL | Plasma 11-deoxycorticosterone, Percent change from Day −1 to Day 10, predose [1]: 171.567% | Plasma 18-hydroxycorticosterone, Day 1, 12 hours postdose [1]: 267.3 pg/mL | Plasma 18-hydroxycorticosterone, Day 1, predose [1]: 1087.0 pg/mL | Plasma 18-hydroxycorticosterone, Day 2, predose [1]: 901.2 pg/mL | Plasma 18-hydroxycorticosterone, Day 10, 12 hours postdose [1]: 345.6 pg/mL | Plasma 18-hydroxycorticosterone, Day 10, 24 hours postdose [1]: 1238.0 pg/mL | Plasma 18-hydroxycorticosterone, Day 10, predose [1]: 1073.4 pg/mL | Plasma 18-hydroxycorticosterone, Percent change from Day −1 to Day 10 [1]: −10.4% | Plasma aldosterone, Day 1, 12 hours postdose [1]: 16.535 pg/mL | Plasma aldosterone, Day 1, predose [1]: 131.250 pg/mL | Plasma aldosterone, Day 2, predose [1]: 37.700 pg/mL | Plasma aldosterone, Day 10, 12 hours postdose [1]: 46.360 pg/mL | Plasma aldosterone, Day 10, 24 hours postdose [1]: 120.740 pg/mL | Plasma aldosterone, Day 10, predose [1]: 101.880 pg/mL | Plasma aldosterone, Percent change from Day −1 to Day 10, predose [1]: −34.296% | Plasma corticosterone, Day 1, 12 hours postdose [1]: 889.0 pg/mL | Plasma corticosterone, Day 1, predose [1]: 5828.3 pg/mL | Plasma corticosterone, Day 2, predose [1]: 6328.3 pg/mL | Plasma corticosterone, Day 10, 12 hours postdose [1]: 2704.0 pg/mL | Plasma corticosterone, Day 10, 24 hours postdose [1]: 11182.0 pg/mL | Plasma corticosterone, Day 10, predose [1]: 8102.0 pg/mL | Plasma corticosterone, Percent change from Day −1 to Day 10, predose [1]: 60.6% | Plasma 11-deoxycorticosterone, Day −1 predose (5.0 mg QD, low salt diet, mean): 49.111 pg/mL | Plasma 18-hydroxycorticosterone, Day −1 predose (5.0 mg QD, low salt diet, mean): 966.3 pg/mL | Plasma aldosterone, Day −1 predose (5.0 mg QD, low salt diet, mean): 189.633 pg/mL | Plasma corticosterone, Day −1 predose (5.0 mg QD, low salt diet, mean): 3700.7 pg/mL | Plasma 11-deoxycorticosterone, Day 1, 12 hours postdose (5.0 mg QD, low salt diet, mean): 94.622 pg/mL | Plasma 11-deoxycorticosterone, Day 1, predose (5.0 mg QD, low salt diet, mean): 55.789 pg/mL | Plasma 11-deoxycorticosterone, Day 10, 12 hours postdose (5.0 mg QD, low salt diet, mean): 219.700 pg/mL | Plasma 11-deoxycorticosterone, Day 10, 24 hours postdose (5.0 mg QD, low salt diet, mean): 308.444 pg/mL | Plasma 11-deoxycorticosterone, Day 10, predose (5.0 mg QD, low salt diet, mean): 218.611 pg/mL | Plasma 11-deoxycorticosterone, Percent change from Day −1 to Day 10, predose (5.0 mg QD, low salt diet, mean): 573.144% | Plasma 18-hydroxycorticosterone, Day 1, 12 hours postdose (5.0 mg QD, low salt diet, mean): 162.3 pg/mL | Plasma 18-hydroxycorticosterone, Day 1, predose (5.0 mg QD, low salt diet, mean): 825.8 pg/mL | Plasma 18-hydroxycorticosterone, Day 10, 12 hours postdose (5.0 mg QD, low salt diet, mean): 405.2 pg/mL | Plasma 18-hydroxycorticosterone, Day 10, 24 hours postdose (5.0 mg QD, low salt diet, mean): 1298.0 pg/mL | Plasma 18-hydroxycorticosterone, Day 10, predose (5.0 mg QD, low salt diet, mean): 1159.6 pg/mL | Plasma 18-hydroxycorticosterone, Percent change from Day −1 to Day 10 (5.0 mg QD, low salt diet, mean): 38.2% | Plasma aldosterone, Day 1, 12 hours postdose (5.0 mg QD, low salt diet, mean): 17.511 pg/mL | Plasma aldosterone, Day 1, predose (5.0 mg QD, low salt diet, mean): 182.800 pg/mL | Plasma aldosterone, Day 10, 12 hours postdose (5.0 mg QD, low salt diet, mean): 49.467 pg/mL | Plasma aldosterone, Day 10, 24 hours postdose (5.0 mg QD, low salt diet, mean): 125.811 pg/mL | Plasma aldosterone, Day 10, predose (5.0 mg QD, low salt diet, mean): 98.367 pg/mL | Plasma aldosterone, Percent change from Day −1 to Day 10, predose (5.0 mg QD, low salt diet, mean): −36.400% | Plasma corticosterone, Day 1, 12 hours postdose (5.0 mg QD, low salt diet, mean): 890.3 pg/mL | Plasma corticosterone, Day 1, predose (5.0 mg QD, low salt diet, mean): 2726.3 pg/mL | Plasma corticosterone, Day 10, 12 hours postdose (5.0 mg QD, low salt diet, mean): 4738.9 pg/mL | Plasma corticosterone, Day 10, 24 hours postdose (5.0 mg QD, low salt diet, mean): 13976.7 pg/mL | Plasma corticosterone, Day 10, predose (5.0 mg QD, low salt diet, mean): 11962.2 pg/mL | Plasma corticosterone, Percent change from Day −1 to Day 10, predose (5.0 mg QD, low salt diet, mean): 460.2% | doses that markedly decrease aldosterone levels (low salt diet and normal salt diet): > 0.5 mg | inhibition of aldosterone synthesis: marked, sustained, selective, and generally dose dependent inhibition | inhibition of aldosterone synthesis (listed as (R)-compound 1): marked, sustained, selective, and generally dose dependent inhibition
